Measured values reported in patent US20120219568A1, “EPIDITHIODIOXO[…] USES THEREOF IN TREATING CANCER” (priority 2011, published 2012).

Columns and labels:
[1] = system: SW620 cells; assay: Apoptosis and TRAIL sensitization of SW620 cells (PI/annexin V flow cytometry); type: cell-based, human
Procedure: (§1) Cells were seeded in wells of 96-well plates for 2 days and then treated with different concentrations of mushroom extract fractions or purified verticillin A for 2 days. The cells were stained with propidium iodide (PI) (Trevigen, Gaithersburg, Md.) or PI plus annexin V-Alex Fluor 647 (Biolegend, San Diego, Calif.) and analyzed by flow cytometry.
SW620 is a metastatic human colon carcinoma cell line that is resistant to TRAIL-induced apoptosis (Voelkel-Johnson C, et al. Mol Cancer Ther 2005 4(9):1320-7).

[2] = system: sarcoma (MC-WST-724), and mammary carcinoma (MCF-7); assay: TRAIL co-treatment apoptosis in other tumor cell types; type: cell-based; conditions: co-treatment with verticillin A and TRAIL
Procedure: as §1
(§2) The sensitization effects of verticillin A was examined in other types of tumor cells.

[3] = system: HepG2 cells; assay: MTT growth inhibition, HepG2; type: cell-based, human
Procedure: (§3) For cell viability assay, cells were seeded in wells of 96-well plates for 2 days and then treated with different concentrations of mushroom extract fractions or purified verticillin A for 2 days. The cells were then incubated with MTT (3-(4,5-dimethylthiazol-2-yl)-2,5-diphenyltetrazolium bromide) using the MTT assay kit (ATCC, Manassas, Va.) according to the manufacturer's instructions.
The growth inhibitory effort of the purified verticillin A was examined on HepG2 cells. Tumor cells were cultured in the presence of different concentrations of verticillin A and analyzed for the growth by MTT assay 24 and 72 h later, respectively. […] To determine whether the growth inhibitory effect is due to increased tumor cell death, genomic DNA was isolated from the treated tumor cells and analyzed by agarose gel electrophoresis.
(§4) To determine whether verticillin A inhibits other types of tumor cell growth, Mammary carcinoma (Bcap-37 and MCF-7), heptocarcinoma (HepG2), cervical (HeLa), liver (SMMC-7721), lung (SPC-A1) cancer cells and T cell leukemia (Jurkat) were cultured in the presence of different concentrations of verticillin A and examined for the efforts of verticillin A on the growth rate of these tumor cells in vitro.

[4] = system: Jurkat; assay: MTT growth inhibition, Jurkat; type: cell-based; conditions: Homo sapiens, T Cell Leukemia, MTT assay
Procedure: as §3, §4

[5] = system: Hela; assay: MTT growth inhibition, Hela; type: cell-based; conditions: Homo sapiens, Cervical Cancer, MTT assay
Procedure: as §3, §4

[6] = system: SMMC-7721; assay: MTT growth inhibition, SMMC-7721; type: cell-based; conditions: Homo sapiens, Hepatoma, MTT assay
Procedure: as §3, §4

[7] = system: SPC-A1; assay: MTT growth inhibition, SPC-A1; type: cell-based; conditions: SPCA1, Lung Carcinoma, MTT assay
Procedure: as §3, §4

[8] = system: A-CDase; assay: A-CDase protein level, Western blot; type: cell-based, human; conditions: after verticillin A treatment
Procedure: (§5) Tumor cells were lysed in lysis buffer containing 20 mM HEPES, pH 7.4, 20 mM NaCl, 10% glycerol, 1% Triton X-100, and a protease inhibitor cocktail (Calbiochem, La Jolla, Calif.). Cellular proteins were separated by 12% or 4-20% SDS-PAGE gradient gels, transferred to Immobilon-P membranes (Millipore, Bedford, Mass.) or nitrocellulose (Bio-Rad, Hercules, Calif.), and probed with the following primary antibodies: anti-FLIP (Cell Sinnaling, Danvers, Mass.) at 1:250; anti-survivin (Santa Cruz Biotech) at 1:100; anti-cIAP1 (cell signaling) at 1:250; anti-xIAP (cell Signaling) at 1:500; anti-Bad (Cell Signaling) at 1:1000; anti-Bax (Cell Signaling) at 1:2000; anti-Mcl-1 (Santa Cruz) at 1:100); anti-A-CDase (BD Biosciences) at 1:1000; anti-CytC (BD Biosciences) at 1:1000; and β-actin (Sigma, St Louis, Mo.) at 1:8000. The blots were then washed and incubated with horseradish peroxidase-conjugated anti-goat (Santa Cruz Biotech), anti-mouse or rabbit (Amersham-Pharmacia, Piscataway, N.J.) IgGs. Blots were detected using the ECL Plus Western detection kit (Amersham Pharmacia Biotech).
To elucidate the molecular mechanisms underlying verticillin A sensitization of tumor cells to TRAIL-mediated apoptosis, the protein levels of genes known to function in the mitochondrion-mediated apoptosis pathway were analyzed. […]

[9] = system: BNIP3; assay: BNIP3 expression level; type: cell-based, human; conditions: SW620 and HepG2 cells
Procedure: Because verticillin A enhances tumor cell apoptosis through the mitochondrion-dependent pathway, the expression levels of apoptosis-related genes of the mitochondrion-mediated apoptosis pathway was analyzed.

[10] = system: multiple types of tumor cell lines; assay: Growth inhibition of multiple types of tumor cell lines; type: cell-based
Procedure: as §3, §4

[11] = system: SW620 cells; assay: Cytochrome C release; type: cell-based, human; conditions: SW620, combinational treatment of verticillin A and TRAIL
Procedure: as §5

[12] = system: 6 other human colon carcinoma cells; assay: TRAIL sensitization in other colon carcinoma cells; type: cell-based; conditions: verticillin A and TRAIL
Procedure: as §1, §2

CN1C(=O)[C@]23SS[C@]1(C)C(=O)N2C1Nc2ccccc2[C@@]1(C12c4ccccc4NC1N1C(=O)[C@@]4(C)SS[C@]1(C(=O)N4C)[C@H]2O)[C@@H]3O (stereo partly drawn) [Verticillin A]
sensitization to TRAIL-induced apoptosis ([1]; SW620, 10 nM verticillin A in combination with TRAIL): dramatically sensitized SW620 cells to TRAIL-induced apoptosis
apoptosis induction, single agent ([1]; SW620, agent alone): induced significant apoptosis
concentration that overcomes TRAIL resistance ([1]; human cancer cells): 10 nM
apoptosis rate versus single agent alone [2]: significantly increased the apoptosis rate
concentration at which the inhibitory effect reached plateau ([3]; HepG2, MTT assay 24 and 72 h): 100 to 150 nM
lowest concentration exhibiting growth inhibitory effect ([3]; HepG2, MTT assay 24 and 72 h): 10 nM
IC50 ([3]; Homo sapiens, Hepatoma, HepG2, MTT assay): 62 nM
inhibitory activity against HepG2 cells ([3]; purified compound, cytotoxicity screen): potent inhibitory activity
IC50 [4]: 37 nM
IC50 [5]: 122 nM
IC50 [6]: 80 nM
IC50 [7]: 30 nM
A-CDase expression level [8]: decreased after verticillin A treatment at a dose-dependent manner
BNIP3 expression level [9]: increased BNIP3 expression level in a dose-dependent manner
growth of tumor cells in vitro ([10]; Bcap-37, MCF-7, HepG2, HeLa, SMMC-7721, SPC-A1, Jurkat): significantly inhibited the growth of all these tumor cells
IC50 ([10]; span over the tumor cell lines of Table 1, read-out: IC50 for multiple types of cancer cells): < 200 nM
cytochrome C release [11]: dramatically increased cytochrome C release
sensitization to TRAIL-induced apoptosis [12]: sensitization effect of verticillin A was also observed
